Reference: the CheMixHub viscosity set
± gives the uncertainty stated by the source.

Test: xn = mol fraction of the nth substance listed

CC(O)CO (centres undefined) + CC(C)CO
viscosity [mPa·s], 100 kPa
Conditions | x2 = 0.101 | x2 = 0.2 | x2 = 0.3 | x2 = 0.4 | x2 = 0.5 | x2 = 0.6 | x2 = 0.7 | x2 = 0.8 | x2 = 0.9
298.15 K | 29.95 ± 0.76 | 22.5 ± 0.54 | 16.76 ± 0.4 | 12.73 ± 0.3 | 9.74 ± 0.23 | 7.778 ± 0.18 | 6.056 ± 0.14 | 4.843 ± 0.11 | 3.968 ± 0.089
303.15 K | 22.85 ± 0.57 | 17.38 ± 0.41 | 13.28 ± 0.31 | 10.21 ± 0.24 | 7.878 ± 0.18 | 6.366 ± 0.15 | 5.037 ± 0.12 | 4.08 ± 0.093 | 3.366 ± 0.075
308.15 K | 17.8 ± 0.44 | 13.79 ± 0.32 | 10.5 ± 0.24 | 8.284 ± 0.19 | 6.476 ± 0.15 | 5.284 ± 0.12 | 4.197 ± 0.096 | 3.45 ± 0.078 | 2.869 ± 0.064
313.15 K | 14.12 ± 0.34 | 11.03 ± 0.26 | 8.532 ± 0.2 | 6.802 ± 0.16 | 5.362 ± 0.12 | 4.42 ± 0.1 | 3.54 ± 0.081 | 2.939 ± 0.066 | 2.471 ± 0.055
318.15 K | 11.32 ± 0.27 | 8.884 ± 0.2 | 6.942 ± 0.16 | 5.599 ± 0.13 | 4.486 ± 0.1 | 3.744 ± 0.084 | 3.013 ± 0.068 | 2.533 ± 0.057 | 2.129 ± 0.047
323.15 K | 9.291 ± 0.22 | 7.286 ± 0.17 | 5.767 ± 0.13 | 4.693 ± 0.11 | 3.766 ± 0.085 | 3.185 ± 0.071 | 2.59 ± 0.058 | 2.192 ± 0.049 | 1.846 ± 0.041

Cc1ccccn1 + Brc1ccccc1
viscosity [mPa·s], 101 kPa
Conditions | x1 = 0.2 | x1 = 0.4 | x1 = 0.6 | x1 = 0.8
293.15 K | 1.072 ± 0.018 | 1.016 ± 0.017 | 0.954 ± 0.016 | 0.885 ± 0.015
313.15 K | 0.833 ± 0.014 | 0.785 ± 0.014 | 0.736 ± 0.013 | 0.684 ± 0.012

CC(O)CO (centres undefined) + OCCO
viscosity [mPa·s], 101 kPa
Conditions | x2 = 0.1212 | x2 = 0.2346 | x2 = 0.3459 | x2 = 0.4339 | x2 = 0.5501 | x2 = 0.631 | x2 = 0.7481 | x2 = 0.8299 | x2 = 0.9064
298.15 K | 41.61 ± 0.24 | 38.96 ± 0.25 | 36.05 ± 0.25 | 33.67 ± 0.25 | 30.55 ± 0.25 | 28.37 ± 0.25 | 25.1 ± 0.24 | 22.65 ± 0.23 | 20.25 ± 0.22
303.15 K | 32.39 ± 0.19 | 30.43 ± 0.2 | 28.19 ± 0.2 | 26.35 ± 0.2 | 23.95 ± 0.2 | 22.28 ± 0.2 | 19.75 ± 0.19 | 17.84 ± 0.18 | 15.99 ± 0.17
308.15 K | 24.28 ± 0.15 | 22.97 ± 0.15 | 21.42 ± 0.15 | 20.15 ± 0.15 | 18.48 ± 0.16 | 17.31 ± 0.15 | 15.55 ± 0.15 | 14.2 ± 0.15 | 12.9 ± 0.14

ClC=C(Cl)Cl + CCC(C)(C)O
298.15 K, 101 kPa
Conditions | viscosity [mPa·s]
x2 = 0.0494 | 0.556 ± 0.078
x2 = 0.101 | 0.576 ± 0.08
x2 = 0.1994 | 0.626 ± 0.086
x2 = 0.2988 | 0.69 ± 0.093
x2 = 0.3984 | 0.779 ± 0.1
x2 = 0.4991 | 0.909 ± 0.12
x2 = 0.5974 | 1.08 ± 0.14
x2 = 0.7 | 1.353 ± 0.17
x2 = 0.7976 | 1.723 ± 0.21
x2 = 0.9001 | 2.365 ± 0.28
